Common to all, as to assay: Kinase inhibitor specificity profiling (Reaction Biology Corporation)
Format in all cases: biochemical
What all share (set-up): % Enzyme Activity (relative to DMSO controls): concentration or dose not given beside the values

The target of assay [1] is T1, panel of 370 protein kinases (Homo sapiens, UniProt Q96BR1).
T1 construct: purchased Reaction Biology Corporation (assay service)
To be noted: 2 h, kinase SGK3/SGKL; read-out: % Enzyme Activity (relative to DMSO controls).

The target in assay [2] is T2, panel of 370 protein kinases (Homo sapiens, UniProt Q6P5Z2).
T2 construct: purchased Reaction Biology Corporation (assay service)
The settings on record: kinase PKN3/PRK3.

The target in assay [3] is T3, panel of 370 protein kinases (Homo sapiens, UniProt P43405).
T3 construct: purchased Reaction Biology Corporation (assay service)
The settings on record: kinase SYK.

Assay [4] concerns the target T4, panel of 370 protein kinases (Homo sapiens, UniProt P10398).
T4 construct: purchased Reaction Biology Corporation (assay service)
To be noted: 2 h, kinase ARAF; read-out: % Enzyme Activity (relative to DMSO controls).

In assay [5] the target is T5, panel of 370 protein kinases (Homo sapiens, UniProt Q9UPE1).
T5 construct: purchased Reaction Biology Corporation (assay service)
To be noted: 2 h, kinase MSSK1/STK23; read-out: % Enzyme Activity (relative to DMSO controls).

The target in assay [6] is T6, panel of 370 protein kinases (Homo sapiens, UniProt P49841).
T6 construct: purchased Reaction Biology Corporation (assay service)
The settings on record: 2 h, kinase GSK3b; read-out: % Enzyme Activity (relative to DMSO controls).

Assay [7] deals with T7, panel of 370 protein kinases (Homo sapiens, UniProt O14920).
T7 construct: purchased Reaction Biology Corporation (assay service)
To be noted: 2 h, kinase IKKb/IKBKB; read-out: % Enzyme Activity (relative to DMSO controls).

The target of assay [8] is T8, panel of 370 protein kinases (Homo sapiens, UniProt Q04771).
T8 construct: purchased Reaction Biology Corporation (assay service)
To be noted: 2 h, kinase ALK2/ACVR1; read-out: % Enzyme Activity (relative to DMSO controls).

The target of assay [9] is T9, panel of 370 protein kinases (Homo sapiens, UniProt Q9UEE5).
T9 construct: purchased Reaction Biology Corporation (assay service)
To be noted: 2 h, kinase DRAK1/STK17A; read-out: % Enzyme Activity (relative to DMSO controls).

For assay [10], the target named is T10, panel of 370 protein kinases (Homo sapiens, UniProt Q86UE8).
T10 construct: purchased Reaction Biology Corporation (assay service)
To be noted: 2 h, kinase TLK2; read-out: % Enzyme Activity (relative to DMSO controls).

Assay [11] concerns the target T11, panel of 370 protein kinases (Homo sapiens, UniProt Q9UKI8).
T11 construct: purchased Reaction Biology Corporation (assay service)
The settings on record: 2 h, kinase TLK1; read-out: % Enzyme Activity (relative to DMSO controls).

Assay [12] concerns the target T12, panel of 370 protein kinases (Homo sapiens, UniProt Q9Y4K4).
T12 construct: purchased Reaction Biology Corporation (assay service)
To be noted: 2 h, kinase KHS/MAP4K5; read-out: % Enzyme Activity (relative to DMSO controls).

Assay [13] addresses T13, panel of 370 protein kinases (Homo sapiens, UniProt Q9BUB5).
T13 construct: purchased Reaction Biology Corporation (assay service)
The settings on record: 2 h, kinase MNK1; read-out: % Enzyme Activity (relative to DMSO controls).

Assay [14] addresses T14, panel of 370 protein kinases (Homo sapiens, UniProt P17948).
T14 construct: purchased Reaction Biology Corporation (assay service)
To be noted: 2 h, kinase FLT1/VEGFR1; read-out: % Enzyme Activity (relative to DMSO controls).

The target in assay [15] is T15, panel of 370 protein kinases (Homo sapiens, UniProt Q04912).
T15 construct: purchased Reaction Biology Corporation (assay service)
The settings on record: 2 h, kinase RON/MST1R; read-out: % Enzyme Activity (relative to DMSO controls).

Assay [16] deals with T16, panel of 370 protein kinases (Homo sapiens, UniProt Q04759).
T16 construct: purchased Reaction Biology Corporation (assay service)
To be noted: 2 h, kinase PKCtheta; read-out: % Enzyme Activity (relative to DMSO controls).

The target in assay [17] is T17, panel of 370 protein kinases (Homo sapiens, UniProt P30530).
T17 construct: purchased Reaction Biology Corporation (assay service)
To be noted: 2 h, kinase AXL; read-out: % Enzyme Activity (relative to DMSO controls).

Assay [18] deals with T18, panel of 370 protein kinases (Homo sapiens, UniProt Q15349).
T18 construct: purchased Reaction Biology Corporation (assay service)
The settings on record: 2 h, kinase RSK3; read-out: % Enzyme Activity (relative to DMSO controls).

Assay [19] has as its target T19, panel of 370 protein kinases (Homo sapiens, UniProt Q6VAB6).
T19 construct: purchased Reaction Biology Corporation (assay service)
The settings on record: 2 h, kinase KSR2; read-out: % Enzyme Activity (relative to DMSO controls).

Assay [20] has as its target T20, panel of 370 protein kinases (Homo sapiens, UniProt P10721).
T20 construct: purchased Reaction Biology Corporation (assay service)
To be noted: 2 h, kinase c-Kit; read-out: % Enzyme Activity (relative to DMSO controls).

The target in assay [21] is T21, panel of 370 protein kinases (Homo sapiens, UniProt P54753).
T21 construct: purchased Reaction Biology Corporation (assay service)
To be noted: 2 h, kinase EPHB3; read-out: % Enzyme Activity (relative to DMSO controls).

Where “and” joins values, the source holds several entries; their conditions need not be identical. Equal values may be shown once.

One compound from PMC9133015 (Nature Communications, 2022) can be followed below.

T2 sequence (Q6P5Z2 whole entry): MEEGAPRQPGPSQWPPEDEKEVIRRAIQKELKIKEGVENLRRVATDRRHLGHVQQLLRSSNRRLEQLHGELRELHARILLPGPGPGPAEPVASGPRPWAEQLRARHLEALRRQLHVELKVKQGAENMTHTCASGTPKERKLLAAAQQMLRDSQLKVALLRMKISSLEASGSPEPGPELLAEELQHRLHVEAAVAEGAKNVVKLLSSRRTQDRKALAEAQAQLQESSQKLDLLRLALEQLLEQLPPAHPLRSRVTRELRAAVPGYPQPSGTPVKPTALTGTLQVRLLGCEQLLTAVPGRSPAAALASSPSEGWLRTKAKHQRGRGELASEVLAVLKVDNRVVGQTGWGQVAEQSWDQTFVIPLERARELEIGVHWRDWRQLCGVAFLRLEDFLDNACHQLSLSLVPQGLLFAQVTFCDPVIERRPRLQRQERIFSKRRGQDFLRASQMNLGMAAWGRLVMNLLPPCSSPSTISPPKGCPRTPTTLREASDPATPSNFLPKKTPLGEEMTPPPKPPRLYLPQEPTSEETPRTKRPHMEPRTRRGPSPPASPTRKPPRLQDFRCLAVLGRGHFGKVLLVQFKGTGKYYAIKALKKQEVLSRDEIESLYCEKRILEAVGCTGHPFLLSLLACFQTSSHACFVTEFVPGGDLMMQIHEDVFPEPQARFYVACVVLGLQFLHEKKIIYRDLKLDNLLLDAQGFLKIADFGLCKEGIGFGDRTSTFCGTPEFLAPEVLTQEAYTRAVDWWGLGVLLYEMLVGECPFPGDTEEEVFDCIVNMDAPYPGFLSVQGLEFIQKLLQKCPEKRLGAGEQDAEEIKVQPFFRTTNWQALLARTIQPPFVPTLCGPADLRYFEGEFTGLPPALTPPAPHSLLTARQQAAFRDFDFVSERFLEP
T1 sequence (Q96BR1 whole entry): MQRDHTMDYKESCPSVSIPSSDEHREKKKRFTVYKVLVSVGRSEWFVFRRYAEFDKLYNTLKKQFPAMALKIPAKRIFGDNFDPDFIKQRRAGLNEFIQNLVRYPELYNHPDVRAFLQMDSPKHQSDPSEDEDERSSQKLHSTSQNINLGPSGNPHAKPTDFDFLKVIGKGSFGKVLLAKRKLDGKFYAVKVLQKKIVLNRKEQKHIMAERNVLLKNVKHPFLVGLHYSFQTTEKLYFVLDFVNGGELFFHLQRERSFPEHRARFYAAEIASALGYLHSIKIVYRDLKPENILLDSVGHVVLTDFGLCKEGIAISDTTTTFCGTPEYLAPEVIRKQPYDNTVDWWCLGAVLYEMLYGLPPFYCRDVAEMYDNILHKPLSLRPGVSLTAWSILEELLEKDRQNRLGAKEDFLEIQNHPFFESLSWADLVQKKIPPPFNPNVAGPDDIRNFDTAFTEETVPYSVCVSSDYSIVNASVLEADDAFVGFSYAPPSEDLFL
T12 sequence (Q9Y4K4 whole entry): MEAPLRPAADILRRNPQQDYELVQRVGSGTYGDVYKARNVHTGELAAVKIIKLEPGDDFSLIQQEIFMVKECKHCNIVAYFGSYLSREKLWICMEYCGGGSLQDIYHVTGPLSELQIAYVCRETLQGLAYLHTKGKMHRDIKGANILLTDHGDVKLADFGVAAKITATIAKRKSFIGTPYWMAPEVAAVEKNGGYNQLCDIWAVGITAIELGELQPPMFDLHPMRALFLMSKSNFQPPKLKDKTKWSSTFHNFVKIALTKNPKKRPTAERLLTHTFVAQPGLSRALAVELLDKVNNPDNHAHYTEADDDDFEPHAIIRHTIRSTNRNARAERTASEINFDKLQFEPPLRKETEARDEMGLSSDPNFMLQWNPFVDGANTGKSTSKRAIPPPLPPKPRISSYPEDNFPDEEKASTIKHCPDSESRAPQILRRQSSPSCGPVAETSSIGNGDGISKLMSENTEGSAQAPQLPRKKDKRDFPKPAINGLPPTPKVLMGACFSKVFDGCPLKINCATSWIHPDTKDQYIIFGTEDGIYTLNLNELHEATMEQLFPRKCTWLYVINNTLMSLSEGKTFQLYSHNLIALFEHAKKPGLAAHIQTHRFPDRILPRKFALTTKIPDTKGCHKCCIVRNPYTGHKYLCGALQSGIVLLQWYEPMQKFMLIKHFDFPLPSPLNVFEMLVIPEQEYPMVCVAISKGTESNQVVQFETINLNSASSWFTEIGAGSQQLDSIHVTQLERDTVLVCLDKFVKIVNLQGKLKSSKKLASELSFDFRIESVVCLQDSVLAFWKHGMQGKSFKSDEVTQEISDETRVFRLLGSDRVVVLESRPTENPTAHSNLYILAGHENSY
T18 sequence (Q15349 whole entry): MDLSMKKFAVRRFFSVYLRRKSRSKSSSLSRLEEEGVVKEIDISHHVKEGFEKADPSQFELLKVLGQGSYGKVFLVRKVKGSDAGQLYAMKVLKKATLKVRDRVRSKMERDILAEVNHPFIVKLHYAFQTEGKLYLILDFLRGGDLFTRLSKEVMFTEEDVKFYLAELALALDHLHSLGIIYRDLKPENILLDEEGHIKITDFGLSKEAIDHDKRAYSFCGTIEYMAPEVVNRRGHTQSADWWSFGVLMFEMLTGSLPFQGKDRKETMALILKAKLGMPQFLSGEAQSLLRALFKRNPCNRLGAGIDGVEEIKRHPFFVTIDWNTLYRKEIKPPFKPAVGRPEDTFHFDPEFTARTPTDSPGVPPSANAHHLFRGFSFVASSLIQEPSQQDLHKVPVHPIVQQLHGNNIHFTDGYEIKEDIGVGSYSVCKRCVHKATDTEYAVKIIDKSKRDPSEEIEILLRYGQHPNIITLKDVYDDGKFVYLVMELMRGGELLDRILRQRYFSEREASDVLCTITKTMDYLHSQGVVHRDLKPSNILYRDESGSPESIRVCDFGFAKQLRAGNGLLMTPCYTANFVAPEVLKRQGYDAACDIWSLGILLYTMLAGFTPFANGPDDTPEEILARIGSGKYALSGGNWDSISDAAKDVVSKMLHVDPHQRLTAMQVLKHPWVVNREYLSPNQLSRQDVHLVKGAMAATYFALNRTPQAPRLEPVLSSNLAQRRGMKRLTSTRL
T14 sequence (P17948 27-1338): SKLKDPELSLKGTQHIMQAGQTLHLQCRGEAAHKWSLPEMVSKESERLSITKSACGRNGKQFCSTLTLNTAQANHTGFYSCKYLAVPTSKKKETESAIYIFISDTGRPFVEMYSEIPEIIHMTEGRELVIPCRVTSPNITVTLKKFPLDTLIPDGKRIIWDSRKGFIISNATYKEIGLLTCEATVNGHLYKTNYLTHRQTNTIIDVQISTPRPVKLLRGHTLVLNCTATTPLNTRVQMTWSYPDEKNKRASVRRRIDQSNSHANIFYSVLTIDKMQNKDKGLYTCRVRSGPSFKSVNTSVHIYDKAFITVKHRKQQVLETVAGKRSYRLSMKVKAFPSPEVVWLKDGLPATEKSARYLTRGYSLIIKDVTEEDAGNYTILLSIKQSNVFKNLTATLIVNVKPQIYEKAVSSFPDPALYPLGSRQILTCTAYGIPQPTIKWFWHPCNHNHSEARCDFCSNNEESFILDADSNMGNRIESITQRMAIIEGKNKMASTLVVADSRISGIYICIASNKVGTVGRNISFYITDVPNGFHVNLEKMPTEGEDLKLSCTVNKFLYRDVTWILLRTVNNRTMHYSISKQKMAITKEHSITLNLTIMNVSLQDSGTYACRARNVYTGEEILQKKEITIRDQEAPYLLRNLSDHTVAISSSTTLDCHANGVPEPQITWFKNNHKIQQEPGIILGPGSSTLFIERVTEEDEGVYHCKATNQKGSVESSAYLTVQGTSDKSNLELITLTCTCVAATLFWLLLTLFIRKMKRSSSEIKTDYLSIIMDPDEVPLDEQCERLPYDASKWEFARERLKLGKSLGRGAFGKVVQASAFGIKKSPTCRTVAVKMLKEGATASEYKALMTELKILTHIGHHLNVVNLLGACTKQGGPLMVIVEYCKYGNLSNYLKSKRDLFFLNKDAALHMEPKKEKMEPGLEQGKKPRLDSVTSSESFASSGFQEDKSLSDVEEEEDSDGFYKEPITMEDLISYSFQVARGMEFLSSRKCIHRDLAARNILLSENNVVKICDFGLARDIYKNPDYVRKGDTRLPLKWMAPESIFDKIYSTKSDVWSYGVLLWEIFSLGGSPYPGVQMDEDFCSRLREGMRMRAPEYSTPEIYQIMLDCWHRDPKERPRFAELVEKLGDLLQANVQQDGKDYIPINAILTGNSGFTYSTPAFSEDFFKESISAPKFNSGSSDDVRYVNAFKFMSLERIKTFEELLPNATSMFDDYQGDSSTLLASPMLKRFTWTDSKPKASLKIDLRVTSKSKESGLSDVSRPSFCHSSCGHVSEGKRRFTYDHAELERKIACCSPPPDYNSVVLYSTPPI
T10 sequence (Q86UE8 whole entry): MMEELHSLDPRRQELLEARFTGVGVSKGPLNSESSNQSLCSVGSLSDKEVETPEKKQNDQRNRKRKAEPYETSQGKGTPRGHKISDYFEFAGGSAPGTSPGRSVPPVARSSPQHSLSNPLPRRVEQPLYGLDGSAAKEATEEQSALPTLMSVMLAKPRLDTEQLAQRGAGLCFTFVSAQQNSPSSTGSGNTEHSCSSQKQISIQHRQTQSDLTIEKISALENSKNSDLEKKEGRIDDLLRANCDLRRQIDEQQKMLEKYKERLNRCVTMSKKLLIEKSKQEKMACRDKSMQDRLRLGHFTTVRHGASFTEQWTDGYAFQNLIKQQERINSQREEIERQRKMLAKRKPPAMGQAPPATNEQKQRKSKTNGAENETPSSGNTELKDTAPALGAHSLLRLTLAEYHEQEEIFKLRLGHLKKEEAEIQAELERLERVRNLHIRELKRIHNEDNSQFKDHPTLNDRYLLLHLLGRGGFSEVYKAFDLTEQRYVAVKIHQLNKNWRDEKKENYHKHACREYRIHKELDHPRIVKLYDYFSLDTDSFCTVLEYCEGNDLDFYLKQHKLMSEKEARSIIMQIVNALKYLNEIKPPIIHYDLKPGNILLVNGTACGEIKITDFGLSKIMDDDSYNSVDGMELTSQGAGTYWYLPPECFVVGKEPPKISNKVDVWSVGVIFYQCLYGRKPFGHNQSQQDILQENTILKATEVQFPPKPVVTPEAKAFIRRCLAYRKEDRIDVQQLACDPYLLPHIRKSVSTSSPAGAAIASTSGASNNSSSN

For `CCN1CCN(C(=O)c2ccc(Nc3ncc(F)c(-c4ccc5nc(N(C)C)sc5c4)n3)nc2)CC1` [YK-2-69], the remaining activity at 1 µM was 95.6% in [1]; 90.6% in [4]; 96.3% in [5]; 60.8% in assay [6]; 96% in assay [7]; 160% in [8]. The remaining activity at 1 µM in assay [9] came to 59%; in assay [10] it was 91.4%; in [11], 98.4%; in assay [12], 101%; in assay [13] it was 89.6%; in [14] it was 101%. The remaining activity at 1 µM in assay [15] was found to be 89.5%; in assay [16] it was 103%; in assay [17], 94.3%; in assay [18], 104%; in assay [19] it was 93%; in [20], 94%. Besides, the remaining activity at 1 µM in assay [21] turned out to be 112%. Besides, the “% Enzyme Activity (relative to DMSO controls)” value was 103.56% and 103.10% in assay [2]; 98.88% and 95.73% in [3].
